We go through 1 compound from patent US20090275099A1 (priority 2004, published 2009).

For series [1], the target named is F1F0-ATPase (Bos taurus, UniProt P13621+P32876). In words: off-rate measurements, recovery of ATP synthesis of SMPs after dilution. Type of series: biochemical, bovine. How it is done:
Inhibition of Na,K-ATPases with oligomycin is time-dependent and results from a slow rate of dissociation from the enzyme (0.05 s^−1) (see, e.g., Esmann, M. (1991) Biochim. Biophys. Acta 1064, 31-36; herein incorporated by reference in its entirety). Since time-dependent inhibition can have profound effects on the function of the F1F0-ATPase, the off-rate of Bz-423 and oligomycin during ATP synthesis was examined. […] Inhibited SMP suspensions were diluted into buffer and activity was measured over time. Enzymatic activity of the SMPs incubated with Bz-423 had recovered to 90% of control at 10 s, indicating rapid dissociation (see, FIG. 18). In contrast, the activity of the enzyme incubated with oligomycin was only 54% of the uninhibited activity at 10 s, and increased for several minutes after dilution (see, FIG. 18). The time-dependence of the recovery of activity fit to a single exponential yielding an apparent dissociation rate constant for Bz-423>0.3 s^−1. However, dissociation of oligomycin was complex and a portion of the inhibitor dissociated at least 10-fold slower, consistent with a tight-binding, slow-dissociating inhibitor (see, e.g., Morrison, J. F., and Walsh, C. T. (1988) Adv. Enzymol. Relat. Areas Mol. Biol. 61, 201-301; herein incorporated by reference in its entirety). Presumably, the constraints of a high-affinity inhibitor dissociating from the membrane embedded proton channel presented a significant barrier for dissociation resulting in a slow off-rate.
Off-rate measurements. Rate of inhibition of ATP synthesis was measured as described above with the following changes. A 20 μL aliquot of SMPs (1 mg mL^−1) in synthesis buffer (with 10 mM K2HPO4) was added to each well of a 96-well plate containing 2.5 μL of 100× drug (14 μM Bz-423 and 35 nM oligomycin, final) or DMSO vehicle control. The drug was diluted out by adding 200 μL of synthesis buffer to each well. Substratecoupling mixture (25 μL with 1 mM ADP) was added to each well at the indicated time point and the rate of NADP^+ reduction was monitored over time.

The target in series [2] is T1, bovine serum albumin (BSA) (Bos taurus, UniProt P02769).
T1 construct: from tissue; host or cells: fetal bovine serum in tissue culture media
T1 sequence (P02769 25-607): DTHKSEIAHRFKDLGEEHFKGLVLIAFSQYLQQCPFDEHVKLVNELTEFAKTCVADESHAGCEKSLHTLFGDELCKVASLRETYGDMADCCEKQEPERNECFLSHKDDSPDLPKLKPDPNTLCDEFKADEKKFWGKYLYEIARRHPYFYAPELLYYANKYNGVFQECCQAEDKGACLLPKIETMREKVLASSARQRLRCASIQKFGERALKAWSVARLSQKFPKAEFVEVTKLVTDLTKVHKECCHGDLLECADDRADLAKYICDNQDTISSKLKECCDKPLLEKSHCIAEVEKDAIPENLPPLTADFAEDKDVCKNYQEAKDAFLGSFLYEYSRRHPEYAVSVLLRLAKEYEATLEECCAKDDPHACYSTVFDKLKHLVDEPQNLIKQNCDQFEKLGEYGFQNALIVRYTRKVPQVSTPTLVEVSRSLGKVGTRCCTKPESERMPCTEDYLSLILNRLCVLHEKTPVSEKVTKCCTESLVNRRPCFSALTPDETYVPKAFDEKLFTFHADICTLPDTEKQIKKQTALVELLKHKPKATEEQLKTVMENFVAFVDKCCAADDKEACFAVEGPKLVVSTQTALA
In words: binding to bovine serum albumin in tissue culture media. Type of series: in vitro ADME. As to conditions: tissue culture media containing 10% (v/v) FBS. How it is done:
(§1) Like most 1,4-benzodiazepines, Bz-423 binds strongly to bovine serum albumin (BSA), which reduces the effective concentration of drug free in solution. For example, in tissue culture media containing 10% (v/v) fetal bovine serum (FBS), ca. 99% of the drug is bound to BSA. Therefore, cell culture cytotoxicity assays are conducted in media with 2% FBS to reduce binding to BSA and increase the free [Bz-423]. Under these conditions, the dose response-curve is quite sharp such that there is a limited concentration range at which Bz-423 is only partly effective. Since some benzodiazepines are known to have anti-proliferative properties, the effect of Bz-423 at concentrations <ED50 were carefully analyzed and observed that in addition to inducing apoptosis, Bz-423 prevented cell growth after 3 d in culture. In these low serum conditions, the cytotoxic and anti-proliferative effects overlapped making it difficult to study each effect independently. […] While higher amounts of drug may also block proliferation, it caused apoptosis well before the effects on proliferation could be observed.

Series [3] deals with T2, mitochondrial F1F0-ATPase (Bos taurus, UniProt P13621+P32876). In words: biochemical. Further details: species or system bovine. Particulars: for Ki: synthesis.
Series [4] has as its system B cells. In words: collapse of ΔΨm detected with DiOC6(3). As to conditions: by 5 hours. In kind it is cell-based. How it is done:
(§2) To detect O2^−, cells are incubated with DHE (10 μM) for 30 min at 37° C. and are analyzed by flow cytometry to measure ethidium fluorescence. Flow analysis of mitochondrial transmembrane potential (ψm) is conducted by labeling cells with DiOC6(3) (20 nM) for 15 min at 37 degrees C. A positive control for disruption of ψm is established using carbonyl cyanide m-chlorophenylhydrazone (CCCP, 50 μM). Caspase activation assays are performed with FAM-VAD-fluoromethylketone. Processing of the substrate is evaluated by flow cytometry.
To characterize the death mechanism engaged by Bz-423, intracellular ROS, ΔΨm, cytochrome c release, caspase activation, and DNA fragmentation were measured over time (the results presented are for B cells but do characterize the response in many different cell types). The first event detected after exposure to Bz-423 is an increase in the fraction of cells that stain with dihyroethedium (DHE), a redox-sensitive agent that reacts specifically with O2^−.
Collapse of ΔΨm was detected using DiOC6(3), a mitochondria-selective potentiometric probe.

The test system of series [5] is Jurkat cells. The series can be described thus: early O2− (ROS) response, 1 h. In kind it is cell-based. As to conditions: Homo sapiens, Jurkat, 1 h, read-out: ROS EC50 (μM), Jurkat cells. As for the experimental part:
as §2
Since an early mitochondrial superoxide (O2^−) mediates apoptosis induced by Bz-423, the O2^− response of cells 1 h following incubation with drug was examined, as well as cell death at 24 h, as previously described (see, e.g., Blatt, N. B., et al., 2002 J Clin Invest 110, 1123-1132; incorporated herein by reference in its entirety).

Series [6] deals with Ramos cells. The series can be described thus: cell culture cytotoxicity assays. As to conditions: 10% FBS. In kind it is cell-based, human. As for the experimental part: as §1
To confirm the decrease in cell number relative to control cells after 3 d of treatment is due to decreased proliferation and not cell death balanced by proliferation, in addition to cell counting, cell divisions were studied. PKH-67 is a fluorescent probe that binds irreversibly to cell membranes and upon cell division is partitioned equally between the daughter cells, making it possible to quantify cell division by flow cytometry. Ramos cells stained with PKH67 and treated with Bz-423 had fewer cell divisions at sub-cytotoxic concentrations which confirmed that the decrease in cell number was due to anti-proliferative affects and not cell death. To determine if Bz-423 induced anti-proliferation was specific to Ramos cells, cell counting and cell cycle experiments were done in other B cell lines and cell lines derived from solid tumors.

The target of series [7] is T2, mitochondrial F1F0-ATPase. In words: biochemical. Details: species or system bovine. Particulars: for EC50: bovine SMPs.

Structures are written as SMILES. Read-outs that look alike come from different tables or passages of the source.

A word on the EC50: it is the concentration giving half of the maximal effect. What is called Ki is a measure of affinity in units of concentration, obtained from inhibition or displacement. Turning to `CN1C(=O)C(Cc2ccc3ccccc3c2)N=C(c2ccc(O)cc2)c2cc(Cl)ccc21` (stereo not drawn) [Bz-423], the “reduction of F1F0-ATPase activity at the concentration produced after dilution” value in series [1] (1.4 μM Bz-423, 3.5 nM oligomycin) worked out at 10%. The activity at 14 µM in series [1] (14 μM Bz-423 or 35 nM oligomycin, read-out: ATP synthesis activity relative to that in the absence of inhibitor) came to 27%. Also, the “enzymatic activity recovered after dilution, % of control” value in series [1] (at 10 s after dilution) amounted to 90%. In addition, the koff in series [1] (read-out: dissociation rate from the enzyme-substrate complex) is roughly 0.2 s⁻¹; in series [1] (single exponential fit, read-out: apparent dissociation rate constant), greater than 0.3 s⁻¹. Besides, the “drug bound to BSA” value in series [2] is recorded as “ca. 99%”. Besides, the EC50 in series [3] (ATPase activity EC50 (μM), Synthesis, bovine SMPs) is 5.5 µM; in series [5], 10 µM; in series [7] (ATPase activity EC50 (μM), Hydrolysis), 8.9 µM; in series [7] (ED 50, inhibition of mitochondrial ATPase activity), roughly 5 µM. For the same compound, the Ki was 6.9 ± 0.3 µM in series [3] (Ki (E), three-dimensional fit, Bz-423); 10 ± 1 µM in series [3] (Ki (ES), three-dimensional fit, Bz-423); 7.2 ± 0.3 µM in series [3] (competitive inhibition constant (Ki(E)), fit of dependence of Vmax/Km on Bz-423 concentration); 11 ± 2 µM in series [3] (uncompetitive inhibition constant (Ki(ES)), fit of dependence of Vmax on Bz-423 concentration); 11 ± 0.4 µM in series [7]. In series [4], the “cells with collapse of ΔΨm” value was greater than 90%. The “amounts of drug with minimal cytotoxicity” value in series [6] lay within 10 to 15 µM. The “concentrations at which only apoptosis was observed” value in series [6] was greater than 20 µM.
